# Reference: patent US20200131196A1 (Mount Tam Therapeutics, Inc., priority 2017, published 2020)
# pEC50, pIC50: −log10 of the molar value. Like-named read-outs stand apart in the source and are kept apart here.
# How the values were obtained:
# SCaBER = assay: OncoPanel cell proliferation assay, SCaBER; type: cell-based, human
# Experimental: (§1) Cells were grown in RPMI 1640, 10% FBS, 2 mM L-alanyl-L-glutamine, 1 mM Na pyruvate, or a special medium. Cells were seeded into 384-well plates and incubated in a humidified atmosphere of 5% CO2 at 37° C. Compounds were added the day following cell seeding. At the same time, a time zero untreated cell plate was generated. After a 3-day incubation period, cells were fixed and stained to allow fluorescence imaging of nuclei. Compounds (1 mM stock solutions) were serially diluted in half-log steps from the highest test concentration ([…]), and assayed over 10 concentrations with a maximum assay concentration of 0.1% DMSO. Automated fluorescence microscopy was carried out using a Molecular Devices ImageXpress Micro XL high-content imager, and images were collected with a 4× objective. 16-bit TIFF images were acquired and analyzed with MetaXpress 5.1.0.41 software.
# (§2) Cell proliferation was measured by the fluorescence intensity of an incorporated nuclear dye. The output is referred to as the relative cell count, where the measured nuclear intensity is transformed to percent of control (POC) using the following formula: […]
# (§3) Cellular response parameters were calculated using nonlinear regression to a sigmoidal single-site dose response model:
# (§4) EC50 is the test compound concentration at the curve inflection point or half the effective response (parameter C of the fitted curve solution). GI50 is the concentration needed to reduce the observed growth by half (midway between the curve maximum and the time zero value). “Cell Count Activity Area” is an estimate of the integrated area above the curve (Barretina, et al. The Cancer Cell Line Encyclopedia enables predictive modelling of anticancer drug sensitivity. Nature 483: 603-607). […] In rare instances, values <0 or >10 may be observed. […] Curve-fitting, calculations, and report generation was performed using a custom data reduction engine and MathIQ based software (AIM).
# DMS114 = assay: OncoPanel cell proliferation assay, DMS114; type: cell-based, human
# Experimental: as §1, with “Cells” for “Cells were grown in RPMI 1640, 10% FBS, 2 mM L-alanyl-L-glutamine, 1 mM Na pyruvate, or a special medium. Cells”
# as §2, §3
# GI50 is the concentration needed to reduce the observed growth by half (midway between the curve maximum and the time zero value). […] In rare instances, values <0 or >10 may be observed. […] Curve-fitting, calculations, and report generation was performed using a custom data reduction engine and MathIQ based software (AIM).
# AsPC-1 = assay: OncoPanel cell proliferation assay, AsPC-1
# Experimental: (§5) Cells were seeded into 384-well plates and incubated in a humidified atmosphere of 5% CO2 at 37° C. Compounds were added the day following cell seeding. At the same time, a time zero untreated cell plate was generated. After a 3-day incubation period, cells were fixed and stained to allow fluorescence imaging of nuclei. Compounds (1 mM stock solutions) were serially diluted in half-log steps from the highest test concentration (1 micromol), and assayed over 10 concentrations with a maximum assay concentration of 0.1% DMSO. Automated fluorescence microscopy was carried out using a Molecular Devices ImageXpress Micro XL high-content imager, and images were collected with a 4× objective. 16-bit TIFF images were acquired and analyzed with MetaXpress 5.1.0.41 software.
# RL95-2 = assay: OncoPanel cell proliferation assay, RL95-2; type: cell-based, human
# Experimental: as §1, §2, §3, §4
# CML-T1 = assay: OncoPanel cell proliferation assay, CML-T1; type: cell-based, human
# Experimental: as §1, §2, §3, §4
# SK-UT-1 = assay: OncoPanel cell proliferation assay, SK-UT-1
# Experimental: as §5
# [1] = Homo sapiens, read-out: Cell Count EC50
# [2] = Homo sapiens, read-out: Cell Count GI50
# [3] = Homo sapiens, read-out: Cell Count IC50
smiles,measurement,setting,value
"CO[C@H]1C[C@@H]2CC[C@@H](C)[C@@](O)(O2)C(=O)C(=O)N2CCCC[C@H]2C(=O)O[C@H]([C@H](C)C[C@H]2C[C@H]3C[C@@H]2C[C@@H]3O)CC(=O)[C@H](C)/C=C(\C)[C@@H](O)[C@@H](OC)C(=O)[C@H](C)C[C@H](C)/C=C/C=C/C=C/1C [Formula II, C37-[(1R,2S,4R,5S)-5-hyhroxybicyclo[2.2.1]heptane] rapamycin]",Cell Count Activity Area,SCaBER,4.82
same,Relative cell count (%) Mean,SCaBER; 1.00E+00 microM,32.7%
same,Relative cell count (%) Mean,SCaBER; 1.00E-01 microM,44.5%
same,Relative cell count (%) Mean,SCaBER; 1.00E-02 microM,42.2%
same,Relative cell count (%) Mean,SCaBER; 1.00E-03 microM,56.1%
same,Relative cell count (%) Mean,SCaBER; 1.01E-04 microM,83.1%
same,Relative cell count (%) Mean,SCaBER; 3.16E-01 microM,36.3%
same,Relative cell count (%) Mean,SCaBER; 3.17E-02 microM,39.5%
same,Relative cell count (%) Mean,SCaBER; 3.17E-03 microM,50.7%
same,Relative cell count (%) Mean,SCaBER; 3.18E-04 microM,63.5%
same,Relative cell count (%) Mean,SCaBER; 3.18E-05 microM,93.1%
same,pEC50,"SCaBER; Homo sapiens, Bladder, summary Table 5, read-out: EC50",9.60
same,pEC50,SCaBER; [1],9.60
same,GI50,SCaBER; [2],0.872 nM
same,pIC50,SCaBER; [3],8.80
same,Cell Count Activity Area,DMS114,3.40
same,Relative cell count (%) Mean,DMS114; 1.00E+00 microM,43.1%
same,Relative cell count (%) Mean,DMS114; 1.00E-01 microM,50.1%
same,Relative cell count (%) Mean,DMS114; 1.00E-02 microM,62.2%
same,Relative cell count (%) Mean,DMS114; 1.00E-03 microM,74.7%
same,Relative cell count (%) Mean,DMS114; 1.01E-04 microM,102.9%
same,Relative cell count (%) Mean,DMS114; 3.16E-01 microM,46.7%
same,Relative cell count (%) Mean,DMS114; 3.17E-02 microM,52.5%
same,Relative cell count (%) Mean,DMS114; 3.17E-03 microM,63.9%
same,Relative cell count (%) Mean,DMS114; 3.18E-04 microM,83.4%
same,Relative cell count (%) Mean,DMS114; 3.18E-05 microM,99.7%
same,pEC50,"DMS114; Homo sapiens, DMS-114, read-out: Cell Count EC50",8.87
same,GI50,"DMS114; Homo sapiens, DMS-114, read-out: Cell Count GI50",0.611 nM
same,pIC50,"DMS114; Homo sapiens, DMS-114, read-out: Cell Count IC50",7.48
same,Cell Count Activity Area,AsPC-1; AsPC-1,1.68
same,Relative cell count (%) Mean,"AsPC-1; AsPC-1, 1.00E+00 microM",70.3%
same,Relative cell count (%) Mean,"AsPC-1; AsPC-1, 1.00E-01 microM",74.4%
same,Relative cell count (%) Mean,"AsPC-1; AsPC-1, 1.00E-02 microM",89.3%
same,Relative cell count (%) Mean,"AsPC-1; AsPC-1, 1.00E-03 microM",90.9%
same,Relative cell count (%) Mean,"AsPC-1; AsPC-1, 1.01E-04 microM",105.4%
same,Relative cell count (%) Mean,"AsPC-1; AsPC-1, 3.16E-01 microM",77.3%
same,Relative cell count (%) Mean,"AsPC-1; AsPC-1, 3.17E-02 microM",81.7%
same,Relative cell count (%) Mean,"AsPC-1; AsPC-1, 3.17E-03 microM",90.9%
same,Relative cell count (%) Mean,"AsPC-1; AsPC-1, 3.18E-04 microM",97.5%
same,Relative cell count (%) Mean,"AsPC-1; AsPC-1, 3.18E-05 microM",104.0%
same,pEC50,"AsPC-1; Homo sapiens, ASPC1",8.07
same,pEC50,"AsPC-1; Homo sapiens, ASPC1, read-out: Cell Count EC50",8.07
same,GI50,"AsPC-1; Homo sapiens, ASPC1, read-out: Cell Count GI50",246 nM
same,pIC50,"AsPC-1; Homo sapiens, ASPC1, read-out: Cell Count IC50",< 6.00
same,Cell Count Activity Area,RL95-2,3.36
same,Relative cell count (%) Mean,RL95-2; 1.00E+00 microM,48.1%
same,Relative cell count (%) Mean,RL95-2; 1.00E-01 microM,51.9%
same,Relative cell count (%) Mean,RL95-2; 1.00E-02 microM,61.8%
same,Relative cell count (%) Mean,RL95-2; 1.00E-03 microM,69.2%
same,Relative cell count (%) Mean,RL95-2; 1.01E-04 microM,91.3%
same,Relative cell count (%) Mean,RL95-2; 3.16E-01 microM,51.5%
same,Relative cell count (%) Mean,RL95-2; 3.17E-02 microM,53.8%
same,Relative cell count (%) Mean,RL95-2; 3.17E-03 microM,62.6%
same,Relative cell count (%) Mean,RL95-2; 3.18E-04 microM,78.8%
same,Relative cell count (%) Mean,RL95-2; 3.18E-05 microM,95.1%
same,pEC50,RL95-2; [1],9.19
same,GI50,RL95-2; [2],1.18 nM
same,pIC50,RL95-2; [3],< 6.00
same,Cell Count Activity Area,CML-T1,3.68
same,Relative cell count (%) Mean,CML-T1; 1.00E+00 microM,44.0%
same,Relative cell count (%) Mean,CML-T1; 1.00E-01 microM,46.4%
same,Relative cell count (%) Mean,CML-T1; 1.00E-02 microM,54.5%
same,Relative cell count (%) Mean,CML-T1; 1.00E-03 microM,67.7%
same,Relative cell count (%) Mean,CML-T1; 1.01E-04 microM,96.1%
same,Relative cell count (%) Mean,CML-T1; 3.16E-01 microM,42.4%
same,Relative cell count (%) Mean,CML-T1; 3.17E-02 microM,46.2%
same,Relative cell count (%) Mean,CML-T1; 3.17E-03 microM,59.5%
same,Relative cell count (%) Mean,CML-T1; 3.18E-04 microM,78.8%
same,Relative cell count (%) Mean,CML-T1; 3.18E-05 microM,96.6%
same,pEC50,CML-T1; [1],9.09
same,GI50,CML-T1; [2],3.64 nM
same,pIC50,CML-T1; [3],7.90
same,pEC50,"SK-UT-1; Homo sapiens, SK-UT-1, read-out: Cell Count EC50",8.82
same,GI50,"SK-UT-1; Homo sapiens, SK-UT-1, read-out: Cell Count GI50",11.3 nM
same,pIC50,"SK-UT-1; Homo sapiens, SK-UT-1, read-out: Cell Count IC50",7.42
same,Cell Count Activity Area,SK-UT-1; SK-UT-1,3.48
same,Relative cell count (%) Mean,"SK-UT-1; SK-UT-1, 1.00E+00 microM",47.0%
same,Relative cell count (%) Mean,"SK-UT-1; SK-UT-1, 1.00E-01 microM",59.0%
same,Relative cell count (%) Mean,"SK-UT-1; SK-UT-1, 1.00E-02 microM",76.1%
same,Relative cell count (%) Mean,"SK-UT-1; SK-UT-1, 1.00E-03 microM",82.8%
same,Relative cell count (%) Mean,"SK-UT-1; SK-UT-1, 1.01E-04 microM",114.4%
same,Relative cell count (%) Mean,"SK-UT-1; SK-UT-1, 3.16E-01 microM",53.3%
same,Relative cell count (%) Mean,"SK-UT-1; SK-UT-1, 3.17E-02 microM",61.4%
same,Relative cell count (%) Mean,"SK-UT-1; SK-UT-1, 3.17E-03 microM",75.4%
same,Relative cell count (%) Mean,"SK-UT-1; SK-UT-1, 3.18E-04 microM",96.2%
same,Relative cell count (%) Mean,"SK-UT-1; SK-UT-1, 3.18E-05 microM",116.9%
